Source: patent US8367639B2, “Hydrogels with covalent and noncovalent crosslinks” (University of Delaware, priority 2005, dated 2013)
Values joined by “and” are separate entries in the source; they are usually repeats but may differ in a detail not shown here. Equal values may be shown once. Read-outs that look alike come from different tables or passages of the source. Square brackets hold non-standard residues; d marks the D form. Ends that are not written are not given here. βAla = NCCC(=O)O

Legend:
[1] = Heparin-sepharose affinity chromatography (NaCl elution); format: binding; details: 25° C.
Description: (§1) Heparin-sepharose affinity liquid chromatography was performed on an ÄKTA Explorer FPLC equipped with a HiTrap Heparin HP column (5 ml, ˜10 mg heparin/ml gel, Amersham Biosciences Corp, Piscataway, N.J.). Surface Plasmon Resonance (SPR). SPR sensorgrams were recorded on a BiaCore 3000 instrument (Biacore Inc, Piscataway, N.J.), employing a high-capacity LMWH surface created on a commercially available streptavidin-coated chip via treatment with biotinylated LMWH.
For heparin affinity chromatography experiments, HBPs were loaded onto a heparin-sepharose column, and then eluted with buffer of increasing NaCl concentration. The concentration of NaCl required for peptide elution is used as an indication of the affinity of the peptide for heparin. The elution of the peptides from the heparin-sepharose column required a salt concentration of 962±10 mM for the PF4ZIP peptide.

[2] = Surface plasmon resonance on LMWH-modified streptavidin chip; format: binding
Description: as §1
In SPR experiments, the interaction of the peptides with a LMWH-modified SA chip surface was determined under conditions described in the experimental section. […] In addition, no mass transport limitation or linked reactions were indicated. […] These faster association kinetics, relative to those reported for the ATIII and HIP (Table 2) (see also N. Yamaguchi, B. S. Chae, L. Zhang, K. L. Kiick, E. M. Furst, Rheological characterization of polysaccharide-poly (ethylene glycol) star copolymer hydrogels, Biomacromolecules 6 (4) (2005) 1931-1940) are the primary cause of the lower measured KD values for PF4ZIP-LMWH binding, and the trend of the dissociation constants is consistent with the chromatography results. […] Nevertheless, the equilibrium constants of dissociation determined via both methods are substantially lower than the concentrations employed during hydrogel formation experiments (see below).
The heparin-binding kinetics between LMWH and PF4ZIP were monitored via SPR at several temperatures between 5° C. and 37° C., to determine potential changes in binding kinetics that might alter hydrogel properties under physiological conditions.

[3] = NaCl; 25° C.; previously reported studies; cited from earlier work
[4] = 25° C.; previously reported studies; cited from earlier work

kd ([2]; 5 ° C.) | kd ([2]; 15 ° C.) | Kd ([2]; 25° C.) | kd ([2]; 25° C.) | kd ([2]; 25 ° C. (Table 3)) | kd ([2]; 37 ° C.) | Substance | Salt required for elution from heparin column [1] | ka ([2]; 5 ° C.) | ka ([2]; 15 ° C.) | ka ([2]; 25° C.) | ka ([2]; 25 ° C. (Table 3)) | ka ([2]; 37 ° C.) | Salt required for elution from heparin column [3] | Kd [4] | ka [4] | kd [4]
3.74 ± 0.17 × 10^−3 s^−1 | 1.67 ± 0.03 × 10^−3 s^−1 | ~0.0115 µM and 0.0115 µM | 2.56±0.10×10^−3 s^−1 | 2.56 ± 0.10 × 10^−3 s^−1 | 2.44 ± 0.08 × 10^−3 s^−1 | CGGRMKQLEDKVKKLLKKNYHLENEVARLKKLVG [PF4ZIP] | 962 ± 10 mM | 1.56 ± 0.01 × 10^5 M^−1s^−1 | 1.90 ± 0.04 × 10^5 M^−1s^−1 | 2.24±0.05×10^5 M^−1s^−1 | 2.24 ± 0.05 × 10^5 M^−1s^−1 | 5.11 ± 0.02 × 10^5 M^−1s^−1 |  |  |  | 
 |  |  |  |  |  | CKbAFAKLAARLYRKA (CK[βAla]FAKLAARLYRKA-NH2; N-terminus assumed; SMILES CC(C)C[C@H](NC(=O)[C@H](CCCCN)NC(=O)[C@H](C)NC(=O)[C@H](Cc1ccccc1)NC(=O)CCNC(=O)[C@H](CCCCN)NC(=O)[C@@H](N)CS)C(=O)N[C@@H](C)C(=O)N[C@@H](C)C(=O)N[C@@H](CCCNC(=N)N)C(=O)N[C@@H](CC(C)C)C(=O)N[C@@H](Cc1ccc(O)cc1)C(=O)N[C@@H](CCCNC(=N)N)C(=O)N[C@@H](CCCCN)C(=O)N[C@@H](C)C(N)=O; listed as Homo sapiens) [ATIII] |  |  |  |  |  |  | 594 ± 2 mM | 12.9 ± 1.3 µM | 1.56 ± 0.06 × 10^2 M^−1s^−1 | 2.00 ± 0.3 × 10^−3 s^−1
 |  |  |  |  |  | CRPKAKAKAKAKDQTK [HIP] |  |  |  |  |  |  | 687 ± 1 mM | 4.2 ± 0.3 µM | 1.10 ± 0.08 × 10^3 M^−1s^−1 | 4.64 ± 0.02 × 10^−3 s^−1
